The subject of one data set is HepG-2. Kind of data set: MTT anticancer activity, HepG-2. Type of data set: cell-based, human. The conditions noted are these: for IC50: Homo sapiens, HepG2, HepG-2, 72 h, MTT, mean ± SEM; for SI: ratio IC50 on normal cells (Wi-38) / IC50 on HepG-2. From the text: (§1) All derivatives were subjected to preliminary cytotoxicity screening on normal human lung fibroblasts (Wi-38) for selectivity assessment, followed by anticancer evaluation against MDA-MB231, Caco-2, and HepG-2 cells compared to the reference multitarget chemotherapeutic agent doxorubicin (Dox) by MTT assay. It is worth mentioning that previous studies reported that Dox inhibits the VEGF pathway which is the main anticancer target of the current study via various mechanisms.
(§2) The compounds’ cytotoxicity on normal and cancer cells was assayed by MTT as reported and detailed in the Supplementary Materials. […]
(§3) 2.1. Cytotoxicity screening on normal human lung fibroblasts (Wi-38)
(§4) The normal human lung fibroblast Wi-38 cell line was used to detect cytotoxicity of the studied compounds. Wi-38 cell line was cultured in DMEM medium-contained 10 % fetal bovine serum (FBS), seeded as 5x10^3 cells per well in 96-well cell culture plate, and incubated at 37 °C in 5 % CO2 incubator. After 24 h for cell attachment, serial concentrations (25-800 nM) of the synthetic compounds and currently used chemotherapy (doxorubicin) were incubated with Wi-38 cells for 72 h. Cell viability was assayed by the MTT method. Twenty microliters of 5 mg/ml MTT (Sigma, USA) were added to each well and the plate was incubated at 37 °C for 3 h. Then MTT solution was removed, 100 µl DMSO was added and the absorbance of each well was measured with a microplate reader (BMG LabTech, Germany) at 570 nm. Plot of Wi-38 cell […]
(§5) compounds (8 and 9) and the reference chemotherapy (Dox) is illustrated in figure 39-A. The effective […]
(§6) was estimated by the Graphpad Instat software. Additionally, morphology of Wi-38 before and after […]
(§7) microscope with a digital camera (Olympus, Japan).
(§8) 2.2. Determination of the anticancer activity
The anticancer effect of the above-mentioned compounds, in comparison with doxorubicin (Dox), was assayed using three human cancer cell lines. Colon cancer cell line (Caco-2) was cultured in DMEM (Lonza, USA) contained with 10 % FBS while liver cancer cell line (HepG-2) and triple-negative breast cancer cell line (MDA- MB 231) were cultured in RPMI-1640 (Lonza, U SA) supplemented with 10 % FBS. […]
compounds were incubated with three cancer cell lines for 72 h at 37 °C in a 5 % CO2 incubator. MTT method was done as described above. Plots of cancer cells viability (%) and growth inhibition (%) of the studied […]
(§9) illustrated in figure 39. […]
(§10) The half-maximal inhibitory concentration (IC50) values were calculated using the Graphpad Instat […]
(§11) safest anticancer compounds were investigated using phase-contrast inverted microscope with a digital […]
(§12) ratio of IC50 value of normal cells to IC50 value of each studied cancer cell lines.
(§13) Figure S40. Plot of (A) Wi-38 cell viability (%) and (B-D) growth inhibition (%) of cancer cell lines with […]

The next data set deals with Caco-2. Put plainly: MTT anticancer activity, Caco-2. Type of data set: cell-based, human. The following applies: for IC50: Homo sapiens, Caco-2, 72 h, MTT, mean ± SEM.
Text: as §1, §2, §3, §4, §5, §6, §7, §8
(§14) The anticancer effect of the above-mentioned compounds, in comparison with doxorubicin (Dox), was assayed using three human cancer cell lines. Colon cancer cell line (Caco-2) was cultured in DMEM (Lonza, USA) contained with 10 % FBS while liver cancer cell line (HepG-2) and triple-negative breast cancer cell line (MDA- MB 231) were cultured in RPMI-1640 (Lonza, U SA) supplemented with 10 % FBS. […] After 24h, serial concentrations (0.2-125 nM) of the tested compounds were incubated with three cancer cell lines for 72 h at 37 °C in a 5 % CO2 incubator. MTT method was done as described above. Plots of cancer cells viability (%) and growth inhibition (%) of the studied […]
as §9, §10, §11, §12, §13

In another data set the test system is MDA-MB 231. Put plainly: MTT anticancer activity, MDA-MB 231. Type of data set: cell-based, human. The conditions noted are these: for IC50: Homo sapiens, MDA-MB 231, 72 h, MTT, mean ± SEM; for SI: ratio IC50 on normal cells (Wi-38) / IC50 on MDA-MB 231.
Text: as §1, §2, §3, §4, §5, §6, §7, §8, §14, §9, §10, §11, §12, §13

For data set [1], the system named is normal human lung fibroblasts (Wi-38). Put plainly: MTT cytotoxicity screening on normal human lung fibroblasts (Wi-38). The format is cell-based. The conditions noted are these: for IC50: Homo sapiens; for IC50 / EC100: Wi-38, 72 h, MTT, mean ± SEM; for EC100: concentration at 100% cell viability.
Text: as §1, §2, §3, §4, §5, §6
microscope with a digital camera (Olympus, Japan). […]

The target of the next data set is T1, MMP-2 (Homo sapiens, UniProt P08253).
T1 construct: read from the 'ab' catalogue number) ab139446
Put plainly: MMP-2 inhibitor screening kit (colorimetric). Type of data set: biochemical. The following applies: in vitro MMP-2. The protocol: VEGFR-2 inhibition was detected by VEGFR-2 (KDR) Kinase Assay Kit-BPS Bioscience Corporation catalog # 40325 [107]. MMP-2 inhibitory activities were evaluated utilizing MMP-2 inhibitor screening kit (Colorimetric) catalog # ab139446 [108]. CA II inhibition assay was performed as reported. The protocols are detailed in the Supplementary Materials.
2.4. MMP-2 inhibitory activity assay […]
inhibitor screening kit (Colorimetric) catalog # ab139446 following the manufacturer’s instructions. The assay uses a thiopeptide as a chromogenic substrate. The MMP cleavage site peptide bond is replaced by a thioester bond in the thiopeptide. Hydrolysis of this bond by MMP-2 produces a sulfhydryl group, which reacts with Ellman’s reagent to form 2-nitr o-5-thiobenzoic acid that can be detected by its absorbance at 412 nm. The pr ocedure of MMP -2 inhibiti on assay is as foll owing
- Add test compounds and diluted enzyme solution to the microplate wells.
- Simultaneously establish the following control wells.
- Vehicle control contains MMP enzyme and vehicle used in delivering test compound (DMSO, concentration […]
- bring the total volume of all controls to 50 µL. Pre-incubate the plate for 10 min. at assay temperature to 37°C.
- Run the enzymatic reaction. […]
inhibited), which were calculated from dose-response curve obtained using eight tested concentrations of the inhibitor and carried out in duplicate. […]

Where [2] appears, read: ratio IC50 on normal cells (Wi-38) / IC50 on Caco-2.

Values joined by “and” are separate entries in the source; they are usually repeats but may differ in a detail not shown here. Identical values can stand only once. Like-named read-outs stand apart in the source and are kept apart here.

T1 sequence (P08253 110-446 limits assumed): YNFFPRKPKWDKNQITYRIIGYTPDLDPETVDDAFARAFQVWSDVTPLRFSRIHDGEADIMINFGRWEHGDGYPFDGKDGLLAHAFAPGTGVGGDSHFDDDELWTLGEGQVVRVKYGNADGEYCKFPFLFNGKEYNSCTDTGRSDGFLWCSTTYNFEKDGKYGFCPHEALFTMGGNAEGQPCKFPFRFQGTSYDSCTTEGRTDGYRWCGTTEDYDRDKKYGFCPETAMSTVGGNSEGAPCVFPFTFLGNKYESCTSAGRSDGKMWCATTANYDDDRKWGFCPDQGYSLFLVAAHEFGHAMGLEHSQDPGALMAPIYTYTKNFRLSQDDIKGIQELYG

`Cc1cc(=O)[nH]c(NN=C[C@H](O)[C@@H](O)[C@H](O)CO)n1` [Compound 2, D-Xylose-(6-methyl-4-oxo-2-pyrimidinyl)hydrazone] registered a melting point of 215 to 216 °C. For the same molecule, in the data set on HepG-2, the IC50 was 3550 ± 35.5 nM and the SI amounted to 0.02. Further, in the data set on Caco-2, the IC50 came to 128 ± 1.48 nM. Also, in the data set with Caco-2 (setting [2]), the SI is 0.73. In the data set on MDA-MB 231, the midpoint of inhibition, the IC50, lay at 100 ± 2.99 nM and the SI turned out to be 0.93. Further, in data set [1], the IC50 was 92.86 ± 0.35 nM and the EC100 was determined as 46.35 ± 1.35 nM.
Turning to `Cc1cc(=O)[nH]c(NN=C[C@H](O)[C@@H](O)[C@H](O)[C@H](O)CO)n1` [Compound 3, D-Glucose-(6-methyl-4-oxo-2-pyrimidinyl)hydrazone], the melting point fell in the range of 240 to 242 °C. Besides, in the data set on HepG-2, the IC50 was 3490 ± 182 nM and the SI amounted to 0.05. The molecule further gave an IC50 in the data set on Caco-2 of 96.49 ± 0.09 nM. Also, in the data set with Caco-2 (setting [2]), the SI is reported as 1.83. Further, in the data set with MDA-MB 231, the IC50 is 75.8 ± 1.25 nM and the SI is 2.33. For the same molecule, in data set [1], the IC50 turned out to be 176 ± 4.14 nM and the EC100 is reported as 84.54 ± 1.00 nM.
For `Cc1cc(=O)[nH]c(NN=C[C@@H](O)[C@@H](O)[C@H](O)[C@H](O)CO)n1` [Compound 4, D-Mannose-(6-methyl-4-oxo-2-pyrimidinyl)hydrazone], the melting point is 220 to 222 °C. For the same molecule, in the data set with HepG-2, the midpoint of inhibition, the IC50, lay at 4940 ± 101 nM and the SI stood at 0.03. The molecule also returned an IC50 in the data set on Caco-2 of 108.1 ± 0.62 nM. For the same molecule, in the data set with Caco-2 (setting [2]), the SI was 1.19. In the data set on MDA-MB 231, 93.7 ± 2.69 nM corresponded to half-maximal inhibition (IC50) and the SI was found to be 1.37. In data set [1], the concentration for half-maximal inhibition (IC50) was 128 ± 2.96 nM and the EC100 is given as 64.61 ± 0.68 nM.
For `Cc1cc(=O)[nH]c(NN=C[C@H](O)[C@@H](O)[C@@H](O)[C@H](O)CO)n1` [Compound 5, D-Galactose-(6-methyl-4-oxo-2-pyrimidinyl)hydrazone], the melting point is 213 to 214 °C. In addition, in the data set with HepG-2, inhibition was half-maximal at 3820 ± 126 nM (IC50) and the SI came out at 0.03. In the data set with Caco-2, this molecule returned an IC50 of 111 ± 2.94 nM. Also, the SI with Caco-2 (setting [2]) came out at 0.92. In addition, in the data set on MDA-MB 231, the IC50 turned out to be 83.3 ± 3.06 nM and the SI is reported as 1.23. In data set [1], this molecule displayed an IC50 of 102 ± 1.25 nM and an EC100 of 48.16 ± 1.66 nM.
Turning to `CC(=O)OCC(OC(C)=O)C(OC(C)=O)C(OC(C)=O)C1N(C(C)=O)N(C(C)=O)c2nc(C)cc(=O)n21` [Compound 6, N^1,N^2-Diacetyl-3-(1,2,3,4-tetra-O-acetyl-D-xylo-tetritol-1-yl)-7-methyl-5-oxo-1,2,4-triazolo[4,3-a]pyrimidine], the melting point lay in the range of 112 to 114 °C. Moreover, in the data set on HepG-2, inhibition was half-maximal at 4628 ± 33 nM (IC50) and the SI was 0.13. In the data set with Caco-2, this molecule yielded an IC50 of 54.06 ± 0.47 nM. The SI in the data set with Caco-2 (setting [2]) is reported as 10.86. Also, in the data set with MDA-MB 231, the IC50 stood at 46.3 ± 3.32 nM and the SI was 12.69. In data set [1], this molecule yielded an IC50 of 587.1 ± 4.48 nM and an EC100 of 353.7 ± 9.54 nM.
In turn, `CC(=O)OCC(OC(C)=O)C(OC(C)=O)C(OC(C)=O)C(OC(C)=O)C1N(C(C)=O)N(C(C)=O)c2nc(C)cc(=O)n21` [Compound 7, N^1,N^2-Diacetyl-3-(1,2,3,4,5-penta-O-acetyl-D-galacto-pentitol-1-yl)-7-methyl-5-oxo-1,2,4-triazolo[4,3-a]pyrimidine] gave a melting point of 97 to 100 °C. Besides, in the data set on HepG-2, the IC50 was 3730 ± 252 nM and the SI turned out to be 0.23. Further, in the data set with Caco-2, the IC50 amounted to 47.44 ± 0.38 nM. Moreover, the SI in the data set with Caco-2 (setting [2]) came to 18.39. Moreover, in the data set with MDA-MB 231, the half-inhibitory concentration (IC50) stood at 39.99 ± 0.04 nM and the SI is reported as 21.82. Further, in data set [1], the IC50 stood at 872 ± 16.3 nM; the EC100 was 664.3 nM and 664.3 ± 26.60 nM.
The molecule `CC(=O)OC[C@@H](OC(C)=O)[C@@H](OC(C)=O)[C@H](OC(C)=O)[C@H](OC(C)=O)[C@@H]1N(C(C)=O)N(C(C)=O)c2nc(C)cc(=O)n21` [Compound 9, N^1,N^2-Diacetyl-3-(1,2,3,4,5-penta-O-acetyl-D-manno-pentitol-1-yl)-5-methyl-7-oxo-1,2,4-triazolo[4,3-a]pyrimidine] registered a melting point of 100 to 102 °C.
Turning to `COc1cccc2c1C(=O)c1c(O)c3c(c(O)c1C2=O)C[C@@](O)(C(=O)CO)C[C@@H]3O[C@H]1C[C@H](N)[C@H](O)[C@H](C)O1` [Doxorubicin, doxorubicin, reference compound], the IC50 came out at 22.5 ± 10 nM in the data set with HepG-2, 48.3 ± 30 nM with Caco-2, 10.6 ± 0.1 nM in the data set with MDA-MB 231 and 30 ± 1 nM in data set [1]. The figures for the SI in the data set with HepG-2, with Caco-2 and with MDA-MB 231 were 1.33, 0.62 and 2.83, respectively. Moreover, the EC100 in data set [1] turned out to be 11.50 ± 0.50 nM; in data set [1] (listed as Dox) it was 11.5 nM. For the same molecule, in data set [1] (Wi-38 at 30 nM, phase-contrast microscopy), the “morphological alteration of treated cells” value is given as “morphological damage”.
As to `COc1ccc(S(=O)(=O)N(CC(=O)NO)CC(C)C)cc1` [NNGH, N-Isobutyl-N-(4-methoxyphenylsulfonyl)glycyl hydroxamic acid], the IC50 on MMP-2 was determined as 298 ± 20.2 nM.

For orientation: IC50 means the concentration that gives 50% inhibition. A higher IC50 goes with lower potency. What is called melting point is the temperature of the solid-liquid transition.

(Values after publication PMC9026109, “Enhancing the Anticancer Potential of Targeting Tumor-Associated Metalloenzymes via VEGFR Inhibition by New Triazolo[4,3-a]pyrimidinone Acyclo C-Nucleosides Multitarget Agents” (Molecules, 2022).)
